Assay results published in patent US20240360165A1, “INHIBITORS OF CYCLIN DEPENDENT KINASE 7 (CDK7)” (Syros Pharmaceuticals, Inc., priority 2016, published 2024).
Read-outs that look alike come from different tables or passages of the source.

What was measured:
CDK2/Cyclin E1 complex = CDK2/Cyclin E1 complex (Homo sapiens, UniProt P24941); assay: CDK2 inhibition assay (Caliper/LabChip EZ Reader kinase assay); assay type: biochemical
Method: (§1) Compounds of the invention were assayed for inhibition of CDK7, CDK9, CDK12, and CDK2 activity at Biortus Biosciences (Jiangyin, Jiangsu Province, P.R. of China) using kinase assays for each CDK developed with a Caliper/LabChip EZ Reader (Perkin Elmer, Waltham, MA).
(§2) Furthermore, the CDK9 inhibition assay used CDK9/Cyclin T1 complex (8 nM) and “5-FAM-CDK9tide” peptide substrate (2 μM, synthesized fluorophore-labeled peptide with the following sequence: 5-FAM-GSRTPMY-NH2 where 5-FAM is defined above and NH2 signifies a C-terminal amide) with 10 mM MgCl2 in the buffer composition listed above. […] Additionally, the CDK2 inhibition assay used CDK2/Cyclin E1 complex (0.5 nM) and “5-FAM-CDK7tide” ([…]) as defined above, with 2 mM MgCl2 in the buffer composition listed above.

CDK9/Cyclin T1 complex = CDK9/Cyclin T1 complex (Homo sapiens, UniProt P50750); assay: CDK9 inhibition assay (Caliper/LabChip EZ Reader kinase assay); assay type: biochemical
Method: as §1, §2

[1] = target: T1, CDK12 (aa686-1082)/Cyclin K complex (Homo sapiens, UniProt Q9NYV4); assay: CDK12 inhibition assay (Caliper/LabChip EZ Reader kinase assay); assay type: biochemical; conditions: Table 1; CDK12 (aa686-1082)/Cyclin K 50 nM, ATP 2 mM, 3 hr at 27° C.
T1 construct: CDK12 (aa686-1082)/Cyclin K complex
Method: as §1, §2

[2] = target: CDK7/Cyclin H/MAT1 complex (Homo sapiens, UniProt P50613); assay: CDK7 inhibition assay (Caliper/LabChip EZ Reader kinase assay); assay type: biochemical
Method: as §1, §2

A673 cells = assay: Inhibition of proliferation of A673 cells (CyQUANT, 72 hour); assay type: cell-based, human
Method: A673 cells are a cell line derived from human […] Ewing's sarcoma. Representative compounds of the invention were tested at different concentrations (from […]; 0.5 log serial dilutions) for their ability to inhibit the proliferation of A673 cells. Known CDK inhibitors dinaciclib or N-((1S,3R)-3-((5-chloro-4-(1H-indol-3-yl)pyrimidin-2-yl)amino)cyclohexyl)-5-((E)-4-(dimethylamino)but-2-enamido)picolinamide and triptolide were used as positive controls. Cells were grown in Dulbecco's Modified Eagle's Medium, +10% FBS+1 mM Sodium Pyruvate. The cells were cultured at 37° C. in a humidified chamber in the presence of 5% CO2. Proliferation assays were conducted over a 72 hour time period. CyQUANT® (Life Technologies, Chicago, IL USA) was used to assess the anti-proliferative effects of the compounds following manufacturer's directions and utilizing the reagents supplied with the CyQUANT® kit.

[3] = Table 1, CDK2/Cyclin E1 0.5 nM, ATP 2 mM, 35 min at 27° C.
[4] = Table 1, CDK9/Cyclin T1 8 nM, ATP 2 mM, 15 min at 27° C.
[5] = Table 1, CDK7/Cyclin H/MAT1 6 nM, ATP 2 mM, 35 min at 27° C.
[6] = A673 cells, 72 hour, CyQUANT, read-out: Inhibition of Proliferation of A673 Cells (calculated IC50)
[7] = Homo sapiens, A673, 72 h, A673 cells, 72 hour, CyQUANT, read-out: Inhibition of Proliferation of A673 Cells (calculated IC50)
[8] = Table 3, comparison with structural analogs
[9] = Homo sapiens, A673, 72 h, Table 3, comparison with structural analogs, 72 hour proliferation, read-out: A673 Cells

Sequence of CDK9/Cyclin T1 complex (P50750 whole entry, species assumed): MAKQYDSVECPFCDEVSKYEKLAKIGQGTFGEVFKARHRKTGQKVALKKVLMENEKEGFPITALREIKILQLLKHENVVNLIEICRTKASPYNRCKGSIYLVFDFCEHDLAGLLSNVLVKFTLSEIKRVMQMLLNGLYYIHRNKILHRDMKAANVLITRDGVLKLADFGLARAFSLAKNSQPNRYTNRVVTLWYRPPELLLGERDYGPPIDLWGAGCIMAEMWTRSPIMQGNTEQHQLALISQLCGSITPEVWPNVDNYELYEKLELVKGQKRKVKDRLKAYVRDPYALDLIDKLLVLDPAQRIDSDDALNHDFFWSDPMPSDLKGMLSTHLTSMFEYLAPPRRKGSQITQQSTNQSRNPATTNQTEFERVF
Sequence of CDK9/Cyclin T1 complex (O60563 whole entry partner, species assumed): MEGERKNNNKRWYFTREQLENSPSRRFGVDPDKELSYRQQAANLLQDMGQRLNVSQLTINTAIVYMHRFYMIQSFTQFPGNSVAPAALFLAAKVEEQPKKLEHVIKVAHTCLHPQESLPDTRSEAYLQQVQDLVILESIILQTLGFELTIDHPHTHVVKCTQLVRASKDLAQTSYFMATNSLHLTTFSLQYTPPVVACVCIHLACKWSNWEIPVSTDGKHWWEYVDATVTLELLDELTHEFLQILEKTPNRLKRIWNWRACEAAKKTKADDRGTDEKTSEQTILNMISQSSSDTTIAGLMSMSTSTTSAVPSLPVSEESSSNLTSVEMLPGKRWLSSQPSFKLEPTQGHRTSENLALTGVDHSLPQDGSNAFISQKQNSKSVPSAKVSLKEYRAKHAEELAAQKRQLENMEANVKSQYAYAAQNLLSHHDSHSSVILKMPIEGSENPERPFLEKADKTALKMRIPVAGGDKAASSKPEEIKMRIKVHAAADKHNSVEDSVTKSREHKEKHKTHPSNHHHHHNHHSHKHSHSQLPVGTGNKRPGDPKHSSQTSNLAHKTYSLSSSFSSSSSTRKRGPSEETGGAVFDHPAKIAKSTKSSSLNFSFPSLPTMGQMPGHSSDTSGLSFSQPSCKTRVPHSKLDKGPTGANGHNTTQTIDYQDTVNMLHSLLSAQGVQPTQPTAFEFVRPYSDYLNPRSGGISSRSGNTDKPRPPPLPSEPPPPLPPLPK
T1 sequence (Q9NYV4 686-1082, species assumed): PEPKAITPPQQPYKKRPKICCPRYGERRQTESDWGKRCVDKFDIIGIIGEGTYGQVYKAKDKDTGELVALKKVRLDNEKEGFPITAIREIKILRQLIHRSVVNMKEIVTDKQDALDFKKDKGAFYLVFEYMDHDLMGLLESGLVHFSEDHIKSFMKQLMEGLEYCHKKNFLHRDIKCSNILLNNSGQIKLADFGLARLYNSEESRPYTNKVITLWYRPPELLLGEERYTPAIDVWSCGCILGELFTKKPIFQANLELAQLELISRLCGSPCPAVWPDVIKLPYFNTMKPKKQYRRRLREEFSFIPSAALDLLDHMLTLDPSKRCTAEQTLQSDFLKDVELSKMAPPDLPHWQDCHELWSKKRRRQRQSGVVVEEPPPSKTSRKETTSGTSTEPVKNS
T1 sequence (O75909 whole entry partner, species assumed, the tested form may be a part): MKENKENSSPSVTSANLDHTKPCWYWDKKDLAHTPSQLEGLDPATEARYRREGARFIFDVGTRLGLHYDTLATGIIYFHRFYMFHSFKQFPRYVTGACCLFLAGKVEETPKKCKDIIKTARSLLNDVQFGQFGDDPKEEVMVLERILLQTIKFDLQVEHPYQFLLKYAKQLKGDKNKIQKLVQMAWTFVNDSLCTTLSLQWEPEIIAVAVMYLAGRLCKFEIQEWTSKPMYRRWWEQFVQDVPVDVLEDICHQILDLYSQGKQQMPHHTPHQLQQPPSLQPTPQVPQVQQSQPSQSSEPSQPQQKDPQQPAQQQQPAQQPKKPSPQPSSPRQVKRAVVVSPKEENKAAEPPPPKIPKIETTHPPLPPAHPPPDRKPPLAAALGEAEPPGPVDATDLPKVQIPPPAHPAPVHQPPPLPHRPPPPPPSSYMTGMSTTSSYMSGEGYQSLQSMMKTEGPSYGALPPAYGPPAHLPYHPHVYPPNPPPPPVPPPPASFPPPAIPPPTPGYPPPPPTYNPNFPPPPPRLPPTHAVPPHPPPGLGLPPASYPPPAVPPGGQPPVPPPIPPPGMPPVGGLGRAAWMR
Sequence of CDK7/Cyclin H/MAT1 complex (P50613 whole entry, species assumed): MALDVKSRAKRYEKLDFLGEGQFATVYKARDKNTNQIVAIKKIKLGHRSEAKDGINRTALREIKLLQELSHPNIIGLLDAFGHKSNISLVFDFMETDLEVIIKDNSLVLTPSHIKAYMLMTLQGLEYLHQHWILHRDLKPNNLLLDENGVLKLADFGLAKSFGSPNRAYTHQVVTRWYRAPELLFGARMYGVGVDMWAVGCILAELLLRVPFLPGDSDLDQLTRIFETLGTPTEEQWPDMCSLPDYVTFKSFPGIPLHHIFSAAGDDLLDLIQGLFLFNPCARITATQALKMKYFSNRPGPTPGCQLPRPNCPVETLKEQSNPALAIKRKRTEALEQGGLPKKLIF
Sequence of CDK7/Cyclin H/MAT1 complex (P51946 whole entry partner, species assumed): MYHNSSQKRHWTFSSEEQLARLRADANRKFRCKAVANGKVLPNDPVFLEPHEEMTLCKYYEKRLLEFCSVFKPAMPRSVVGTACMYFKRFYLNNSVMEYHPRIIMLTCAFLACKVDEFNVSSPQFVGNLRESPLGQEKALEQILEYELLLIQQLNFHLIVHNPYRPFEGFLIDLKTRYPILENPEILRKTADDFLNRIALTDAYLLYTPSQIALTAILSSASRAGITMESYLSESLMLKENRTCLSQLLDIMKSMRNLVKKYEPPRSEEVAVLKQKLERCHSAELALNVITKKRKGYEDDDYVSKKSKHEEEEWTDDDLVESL
Sequence of CDK7/Cyclin H/MAT1 complex (P51948 whole entry partner, species assumed): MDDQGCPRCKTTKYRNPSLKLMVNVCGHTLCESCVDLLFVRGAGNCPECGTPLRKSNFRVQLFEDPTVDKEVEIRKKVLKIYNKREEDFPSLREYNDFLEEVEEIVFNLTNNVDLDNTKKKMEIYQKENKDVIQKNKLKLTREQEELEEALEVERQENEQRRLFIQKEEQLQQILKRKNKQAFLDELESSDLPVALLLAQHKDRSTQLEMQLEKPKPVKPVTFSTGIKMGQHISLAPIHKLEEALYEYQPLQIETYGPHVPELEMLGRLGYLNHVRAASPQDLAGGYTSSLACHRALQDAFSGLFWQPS

| SMILES | IC50 (CDK2/Cyclin E1 complex; [3]) | IC50 (CDK9/Cyclin T1 complex; [4]) | IC50 [1] | IC50 [2, 5] | IC50 (A673 cells; [6]) | IC50 (A673 cells; [7]) | IC50 (CDK2/Cyclin E1 complex; [8]) | IC50 (CDK9/Cyclin T1 complex; [8]) | IC50 (A673 cells; [9]) | IC50 [2, 8] | IC50 (A673 cells; Homo sapiens, A673 cells, 72 hour, CyQUANT, read-out: Inhibition of Proliferation of A673 Cells (calculated IC50)) |
| --- | --- | --- | --- | --- | --- | --- | --- | --- | --- | --- | --- |
| CC1(O)CCC(c2cccc3c(-c4nc(N[C@H]5CCCNC5)ncc4C(F)(F)F)c[nH]c23)CC1 (single isomer, unassigned) [Compound 193] | 200 to 5000 nM | 200 to 5000 nM | 200 to 5000 nM | 20 to 200 nM | – | – | – | – | – | – | – |
| Fc1cc2[nH]cc(-c3nc(N[C@H]4CCCNC4)ncc3C(F)(F)F)c2cc1F [Compound 184] | 20 to 200 nM | 20 to 200 nM | 20 to 200 nM | < 20 nM | < 20 nM | – | – | – | – | – | – |
| FC(F)(F)c1cnc(N[C@H]2CCC3(CC3)NC2)nc1-c1c[nH]c2ccccc12 [Compound 212] | 200 to 5000 nM | 200 to 5000 nM | 200 to 5000 nM | < 20 nM | – | < 20 nM | – | – | – | – | – |
| O=C(c1ccc2c(-c3nc(N[C@H]4CCCNC4)ncc3C(F)(F)F)c[nH]c2c1)N1CC[C@@H](O)C1 [Compound 205, [(3R)-3-hydroxypyrrolidin-1-yl]-[3-[2-[[(3S)-3-piperidyl]amino]-5-(trifluoromethyl)pyrimidin-4-yl]-1H-indol-6-yl]methanone] | > 5000 nM | > 5000 nM | 200 to 5000 nM | < 20 nM | – | 200 to 5000 nM | – | – | – | – | – |
| Brc1cnc(NC2CCCNC2)nc1-c1c[nH]c2ccccc12 (stereo in doubt) [Compound 133] | 20 to 200 nM | 200 to 5000 nM | 20 to 200 nM | < 20 nM | – | < 20 nM | – | – | – | – | – |
| FC(F)(F)c1cnc(N[C@H]2CCCNC2)nc1-c1c[nH]c2cc(-c3cc[nH]n3)ccc12 [Compound 291, N-[(3S)-3-piperidyl]-4-[6-(1H-pyrazol-3-yl)-1H-indol-3-yl]-5-(trifluoromethyl) pyrimidin-2-amine] | > 5000 nM | 200 to 5000 nM | 200 to 5000 nM | 20 to 200 nM | 20 to 200 nM | – | – | – | – | – | – |
| C[C@]1(N)CC[C@@H](Nc2ncc(C(F)(F)F)c(-c3n[nH]c4ccccc34)n2)CC1 [reference compound] | – | – | – | – | – | – | 200 to 5000 nM | 200 to 5000 nM | 20 to 200 nM | 200 to 5000 nM | – |
| CC(C)C1CCC(Nc2ncc(C(F)(F)F)c(-c3c[nH]c4ccccc34)n2)CN1 (centres unmarked) [Compound 260] | > 5000 nM | > 5000 nM | 200 to 5000 nM | 200 to 5000 nM | – | 200 to 5000 nM | – | – | – | – | – |
| N#Cc1cn(-c2ccc3c(-c4nc(NC5CCCNC5)ncc4C(F)(F)F)c[nH]c3c2)cn1 (centres unmarked) [Compound 249] | > 5000 nM | > 5000 nM | 200 to 5000 nM | < 20 nM | – | 20 to 200 nM | – | – | – | – | – |
| CCOP(=O)(OCC)c1cccc2c(-c3nc(N[C@H]4CCCNC4)ncc3C(F)(F)F)c[nH]c12 [Compound 168] | > 5000 nM | > 5000 nM | > 5000 nM | 200 to 5000 nM | – | – | – | – | – | – | 200 to 5000 nM |
| Cc1nn(C)cc1-c1cccc2c(-c3nc(N[C@H]4CCCNC4)ncc3C(F)(F)F)c[nH]c12 [Compound 171] | 200 to 5000 nM | 200 to 5000 nM | 200 to 5000 nM | < 20 nM | – | < 20 nM | – | – | – | – | – |
| CS(=O)(=O)c1cccn2c([C@H]3CCC[C@@H](Nc4ncc(C(F)(F)F)c(-c5c[nH]c6ccccc56)n4)C3)nnc12 [Compound 265, 4-(1H-indol-3-yl)-N-[(1R,3S)-3-(8-methylsulfonyl-[1,2,4]triazolo [4,3-a]pyridin-3-yl)cyclohexyl]-5-(trifluoromethyl) pyrimidin-2-amin] | 200 to 5000 nM | 200 to 5000 nM | 200 to 5000 nM | 200 to 5000 nM | – | 20 to 200 nM | – | – | – | – | – |
| FC(F)(F)c1cnc(NC2C3CCC2NC3)nc1-c1c[nH]c2ccccc12 (centres unmarked) [Compound 222, N-[4-(1H-indol-3-yl)-5-(trifluoromethyl)pyrimidin-2-yl]-3-azabicyclo [2.2.1]heptan-7-amine] | 200 to 5000 nM | 200 to 5000 nM | 200 to 5000 nM | 20 to 200 nM | – | 20 to 200 nM | – | – | – | – | – |
| FC(F)(F)c1cnc(N[C@H]2CCCNC2)nc1-c1c[nH]c2c(Br)cccc12 [Compound 163] | – | 200 to 5000 nM | 200 to 5000 nM | 20 to 200 nM | – | 20 to 200 nM | – | – | – | – | – |
| CCc1cnc(N[C@H]2CCCNC2)nc1-c1c[nH]c2c(S(=O)O)cccc12 [Compound 363, 3-[5-ethyl-2-[[(3S)-3-piperidyl]amino]pyrimidin-4-yl]-1H-indole-7-sulfinic acid] | > 5000 nM | > 5000 nM | > 5000 nM | 20 to 200 nM | – | – | – | – | – | – | – |
| FC(F)(F)c1cnc(N[C@H]2CCC3(CCCCC3)NC2)nc1-c1c[nH]c2ccccc12 [Compound 240] | 200 to 5000 nM | 200 to 5000 nM | 200 to 5000 nM | 20 to 200 nM | – | – | – | – | – | – | – |
| CCc1cnc(N[C@H]2CCCNC2)nc1-c1c[nH]c2c(S(=O)(=O)O)cccc12 [Compound 362, 3-[5-ethyl-2-[[(3S)-3-piperidyl]amino]pyrimidin-4-yl]-1H-indole-7-sulfonic acid] | > 5000 nM | > 5000 nM | > 5000 nM | 20 to 200 nM | – | – | – | – | – | – | – |
| FC(F)(F)c1cnc(N[C@H]2CCCNC2)nc1-c1c[nH]c2cc(N3CCCC3)ccc12 [Compound 213, N-[(3S)-3-piperidyl]-4-(6-pyrrolidin-1-yl-1H-indol-3-yl)-5-(trifluoromethyl) pyrimidin-2-amine] | > 5000 nM | > 5000 nM | – | – | – | 20 to 200 nM | – | – | – | – | – |
| CCC(=O)N[C@H]1CNC[C@@H](Nc2ncc(C(F)(F)F)c(-c3c[nH]c4c(S(C)(=O)=O)cccc34)n2)C1 [Compound 254, N-[(3R,5S)-5-[[4-(7-methylsulfonyl-1H-indol-3-yl)-5-(trifluoromethyl)pyrimidin-2-yl]amino]-3-piperidyl]propanamide] | > 5000 nM | > 5000 nM | > 5000 nM | 200 to 5000 nM | – | – | – | – | – | – | – |
| CC1(O)CCC(c2cccc3c(-c4nc(N[C@H]5CCCNC5)ncc4C(F)(F)F)c[nH]c23)CC1 (single isomer, unassigned) [Compound 192] | 200 to 5000 nM | 200 to 5000 nM | 200 to 5000 nM | 20 to 200 nM | – | – | – | – | – | – | – |
| C[C@]1(N)CC[C@@H](Nc2ncc(C(F)(F)F)c(-c3c[nH]c4ccccc34)n2)CC1 [reference compound] | – | – | – | – | – | – | 200 to 5000 nM | > 5000 nM | 20 to 200 nM | 200 to 5000 nM | – |
| FC(F)(F)c1cnc(N[C@H]2CCCNC2)nc1-c1c[nH]c2c(-c3ccncc3)cccc12 [Compound 162] | – | 200 to 5000 nM | 200 to 5000 nM | 20 to 200 nM | – | < 20 nM | – | – | – | – | – |
| FC(F)(F)c1cnc(N[C@H]2CCCNC2)nc1-c1n[nH]c2ccccc12 [drawing 562] | – | – | – | – | – | – | 200 to 5000 nM | 200 to 5000 nM | < 20 nM | < 20 nM | – |
| FC(F)(F)c1cnc(N[C@H]2CCCNC2)nc1-c1c[nH]c2ccccc12 | – | – | – | – | – | – | 200 to 5000 nM | 20 to 200 nM | < 20 nM | < 20 nM | – |
| CCc1cnc(N[C@H]2CCCNC2)nc1-c1c[nH]c2ncc(F)cc12 [Compound 270, (S)-5-ethyl-4-(5-fluoro-1H-pyrrolo[2,3-b]pyridin-3-yl)-N-(piperidin-3-yl)pyrimidin-2-amine] | 200 to 5000 nM | 200 to 5000 nM | 200 to 5000 nM | < 20 nM | – | – | – | – | – | – | – |
| FC(F)(F)c1cnc(N[C@H]2CCCNC2)nc1-c1c[nH]c2cc(-n3ccnc3)ccc12 [Compound 248, 4-(6-imidazol-1-yl-1H-indol-3-yl)-N-[(3S)-3-piperidyl]-5-(trifluoromethyl) pyrimidin-2-amine] | 200 to 5000 nM | 200 to 5000 nM | 200 to 5000 nM | < 20 nM | – | – | – | – | – | – | – |
| Cn1cc(-c2cccc3c(-c4nc(N[C@H]5CCCNC5)ncc4C(F)(F)F)c[nH]c23)cn1 [Compound 164] | – | 200 to 5000 nM | 200 to 5000 nM | 20 to 200 nM | – | < 20 nM | – | – | – | – | – |
| C[C@]1(O)CCN(C(=O)c2ccc3c(-c4nc(N[C@H]5CCCNC5)ncc4C(F)(F)F)c[nH]c3c2)C1 [Compound 220, [(3S)-3-hydroxy-3-methyl-pyrrolidin-1-yl]-[3-[2-[[(3S)-3-piperidyl]amino]-5-(trifluoromethyl)pyrimidin-4-yl]-1Hindol-6-yl]methanone] | > 5000 nM | > 5000 nM | 200 to 5000 nM | < 20 nM | – | – | – | – | – | – | – |
